Series [1] has as its system endosomal acidification in MDCK cells. The series can be described thus: Endosomal acidification analysis in live cells. It is filed as cell-based, canine. The settings on record: pHrodo Red dextran, P1 25.0 μg ml-1, TAT-P1 3.1 μg ml-1, bafilomycin A1 100.0 nM, PA1 25.0 μg ml-1.
Series [2] deals with A(H1N1)pdm09 virus. The class given is cell-based.
A further series deals with MDCK cells. The experiment in a line: MTT cytotoxicity assay in MDCK cells. The settings on record: 24 h incubation at 37 °C, DMEM with 1% FBS, three independent experiments.
The target of series [3] is viral HA protein (H1N1 glycoprotein HA1) (Influenza A virus, UniProt C3W5S1). As to conditions: ELISA (peptide 0.1 μg per well, HA1 2 μg ml-1) and western blot (peptide 1 μg).
viral HA protein (H1N1 glycoprotein HA1), sequence (C3W5S1 18-344 limits assumed): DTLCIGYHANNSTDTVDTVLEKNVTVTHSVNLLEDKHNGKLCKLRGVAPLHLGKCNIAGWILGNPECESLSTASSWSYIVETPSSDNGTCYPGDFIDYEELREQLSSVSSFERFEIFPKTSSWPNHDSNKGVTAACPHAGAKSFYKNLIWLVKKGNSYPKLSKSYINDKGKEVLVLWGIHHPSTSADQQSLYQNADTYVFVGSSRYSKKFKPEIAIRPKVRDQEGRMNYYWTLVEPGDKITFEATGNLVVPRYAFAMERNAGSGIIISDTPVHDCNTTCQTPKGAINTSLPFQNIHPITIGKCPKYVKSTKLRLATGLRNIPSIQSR
Series [4] relates to HA-mediated membrane fusion (H7N7 HA in 293T cells). The settings on record: pH 5.
The test system of series [5] is A(H7N7) virus. The settings on record: 1 h, pH 7.4.
Series [6] concerns 293T cells. The experiment in a line: MTT cytotoxicity assay in 293T cells. As to conditions: 24 h incubation at 37 °C, DMEM with 1% FBS, three independent experiments.
Series [7] concerns 293T cells.
Series [8] has as its system A(H7N7) virus. On the set-up: species or system BALB/c female mice. As to conditions: mouse, in vivo.
The subject of series [9] is A(H1N1)pdm09 virus. As to conditions: 1 h, pH 7.4.
For a further series, the system named is endosomal acidification. The settings on record: cited from earlier work.
Series [10] relates to A(H1N1)pdm09 virus. On the set-up: species or system BALB/c female mice. As to conditions: in vivo.
Series [11] has as its system A(H1N1)pdm09 virus. Further details: species or system BALB/c female mice. The settings on record: mouse, in vivo.
The subject of series [12] is A(H7N7) virus. It is filed as cell-based.

Converted amounts (≈) assume the structure as drawn. Where two headings read alike, the source gives them in different places. Residues, ends and D or L forms follow the SMILES beside them. A value given as a limit tells only on which side of the number the result lay.

Turning to `CO/C1=C\C(C)=C\[C@@H](C)[C@@H](O)[C@@H](C)C/C(C)=C/C=C/[C@H](OC)[C@@H]([C@@H](C)[C@@H](O)[C@H](C)[C@@]2(O)C[C@@H](O)[C@H](C)[C@@H](C(C)C)O2)OC1=O` [Bafilomycin A1, reference compound], the “prevention of endosomal acidification” value in series [1] was “prevented endosomal acidification”. Besides, the “block of viral RNP release into the nuclei” value (“block” for short) in the series on A(H1N1)pdm09 virus [2] was “blocked viral RNP release into the nuclei”.

On to `CC[C@H](C)[C@H](NC(=O)[C@H](CCC(N)=O)NC(=O)[C@H](CCCNC(=N)N)NC(=O)[C@H](Cc1ccccc1)NC(=O)[C@H](C)NC(=O)[C@@H](NC(=O)[C@@H]1CCCN1C(=O)[C@H](CS)NC(=O)[C@@H]1CCCN1C(=O)CNC(=O)[C@H](Cc1c[nH]c2ccccc12)NC(=O)[C@@H](N)CS)[C@@H](C)O)C(=O)NCC(=O)N[C@@H](CC(N)=O)C(=O)N[C@@H](CS)C(=O)NCC(=O)N[C@@H](CCCNC(=N)N)C(=O)N[C@@H](Cc1ccccc1)C(=O)N[C@@H](CCCNC(=N)N)C(=O)N[C@H](C(=O)N[C@@H](CCCNC(=N)N)C(=O)N[C@@H](CS)C(=O)N[C@@H](CS)C(=O)N[C@@H](CCCNC(=N)N)C(=O)N[C@H](C(=O)N[C@@H](CCCNC(=N)N)C(=O)O)[C@@H](C)CC)C(C)C` [P1] (H-CWGPCPTAFRQIGNCGRFRVRCCRIR-OH), for which the “CC50 (MDCK)” value in the series on MDCK cells is over 400 µg/mL. Moreover, in [3], the “binding to viral HA protein” value is listed as “bind to viral HA protein”. In series [1], the “prevention of endosomal acidification” value is recorded as “prevented endosomal acidification”. The “inhibition of viral replication in 293T cells” value in the series on H7N7 virus is given as “significantly inhibit viral replication”. For the same molecule, in [4], the “inhibition of HA-mediated membrane fusion” value was “did not inhibit HA-mediated membrane fusion”. The “IC50 (H7N7)” value in the series on A(H7N7) virus [5] is 1.56 µg/mL (≈ 0.51 µM). Besides, in the series on A(H1N1)pdm09 virus [2], the “block” value is “blocked viral RNP release into the nuclei”. Further, in the series on 293T cells [6], the “CC50 (293T)” value is over 400 µg/mL. Further, the “concentration that significantly enhances the transfection efficiency of plasmid DNA” value with 293T cells [7] was found to be 12.5.

Regarding `N=C(N)NCCC[C@H](NC(=O)[C@H](CCCNC(=N)N)NC(=O)[C@H](CCCNC(=N)N)NC(=O)[C@H](CCC(N)=O)NC(=O)[C@H](CCCNC(=N)N)NC(=O)[C@H](CCCNC(=N)N)NC(=O)[C@H](CCCCN)NC(=O)[C@H](CCCCN)NC(=O)[C@H](CCCNC(=N)N)NC(=O)CNC(=O)[C@@H](N)Cc1ccc(O)cc1)C(=O)O` [TAT, reference compound], in the series on MDCK cells, the “CC50 (MDCK)” value is over 400 µg/mL. For the same molecule, the “CC50 (293T)” value in the series with 293T cells [6] is over 400 µg/mL.

In the case of `CC[C@H](C)[C@H](NC(=O)[C@H](CCC(N)=O)NC(=O)[C@H](CCCNC(=N)N)NC(=O)[C@H](Cc1ccccc1)NC(=O)[C@H](C)NC(=O)[C@@H](NC(=O)[C@@H]1CCCN1C(=O)[C@H](CS)NC(=O)[C@@H]1CCCN1C(=O)CNC(=O)[C@H](Cc1c[nH]c2ccccc12)NC(=O)[C@H](CS)NC(=O)[C@H](CCCNC(=N)N)NC(=O)[C@H](CCCNC(=N)N)NC(=O)[C@H](CCCNC(=N)N)NC(=O)[C@H](CCC(N)=O)NC(=O)[C@H](CCCNC(=N)N)NC(=O)[C@H](CCCNC(=N)N)NC(=O)[C@H](CCCCN)NC(=O)[C@H](CCCCN)NC(=O)[C@H](CCCNC(=N)N)NC(=O)CNC(=O)[C@@H](N)Cc1ccc(O)cc1)[C@@H](C)O)C(=O)NCC(=O)N[C@@H](CC(N)=O)C(=O)N[C@@H](CS)C(=O)NCC(=O)N[C@@H](CCCNC(=N)N)C(=O)N[C@@H](Cc1ccccc1)C(=O)N[C@@H](CCCNC(=N)N)C(=O)N[C@H](C(=O)N[C@@H](CCCNC(=N)N)C(=O)N[C@@H](CS)C(=O)N[C@@H](CS)C(=O)N[C@@H](CCCNC(=N)N)C(=O)N[C@H](C(=O)N[C@@H](CCCNC(=N)N)C(=O)O)[C@@H](C)CC)C(C)C` [TAT-P1] (H-YGRKKRRQRRRCWGPCPTAFRQIGNCGRFRVRCCRIR-OH), the “weight ratio (peptide:DNA) at which complexes with DNA form” value with plasmid DNA is over 2. In addition, the “binding to viral HA protein” value in [3] is reported as “bind to viral HA protein”. In addition, in series [1], the “prevention of endosomal acidification” value is listed as “prevented endosomal acidification”. Besides, in the series on H7N7 virus, the “inhibition of viral replication in 293T cells” value is “significantly inhibit viral replication”. Also, the survival in the series on A(H7N7) virus [8] was 30%. In addition, in series [4], the “inhibition of HA-mediated membrane fusion” value is on record as “did not inhibit HA-mediated membrane fusion”. In the series on A(H7N7) virus [5], the “IC50 (H7N7)” value turned out to be 0.56 µg/mL (≈ 0.122 µM). The “block” value in the series with A(H1N1)pdm09 virus [2] is reported as “blocked viral RNP release into the nuclei”. Further, in the series on A(H1N1)pdm09 virus [9], the “IC50 (H1N1)” value is 0.67 µg/mL (≈ 0.146 µM).

With `CC[C@H](C)[C@H](NC(=O)[C@H](CCCNC(=N)N)NC(=O)[C@H](CS)NC(=O)[C@H](CS)NC(=O)[C@H](CCCNC(=N)N)NC(=O)[C@@H](NC(=O)[C@H](CCCNC(=N)N)NC(=O)[C@H](Cc1ccccc1)NC(=O)[C@H](CCCNC(=N)N)NC(=O)CNC(=O)[C@H](CS)NC(=O)[C@H](CC(N)=O)NC(=O)[C@H](CCCNC(=N)N)NC(=O)[C@H](CCCCN)NC(=O)[C@H](CCCNC(=N)N)NC(=O)[C@H](Cc1ccccc1)NC(=O)[C@H](C)NC(=O)[C@H](CCCNC(=N)N)NC(=O)[C@@H]1CCCN1C(=O)[C@H](CS)NC(=O)[C@@H]1CCCN1C(=O)[C@H](CCCNC(=N)N)NC(=O)[C@H](Cc1c[nH]c2ccccc12)NC(=O)[C@H](CS)NC(=O)[C@H](CCCNC(=N)N)NC(=O)[C@H](CCCNC(=N)N)NC(=O)[C@H](CCCNC(=N)N)NC(=O)[C@H](CCC(N)=O)NC(=O)[C@H](CCCNC(=N)N)NC(=O)[C@H](CCCNC(=N)N)NC(=O)[C@H](CCCCN)NC(=O)[C@H](CCCCN)NC(=O)[C@H](CCCNC(=N)N)NC(=O)CNC(=O)[C@@H](N)Cc1ccc(O)cc1)[C@@H](C)CC)C(=O)N[C@@H](CCCNC(=N)N)C(=O)O` [TAT-P2] (H-YGRKKRRQRRRCWRPCPRAFRKRNCGRFRIRCCRIR-OH; N-terminus and C-terminus assumed), the “IC50 (H7N7)” value in the series with A(H7N7) virus [5] came to 0.97 µg/mL (≈ 0.204 µM). Further, the “IC50 (H1N1)” value in the series with A(H1N1)pdm09 virus [9] is 0.76 µg/mL (≈ 0.16 µM).

As for `CC[C@H](C)[C@H](NC(=O)[C@H](CCCNC(=N)N)NC(=O)[C@H](CS)NC(=O)[C@H](CCCNC(=N)N)NC(=O)[C@@H](NC(=O)[C@H](CCCNC(=N)N)NC(=O)[C@H](Cc1ccccc1)NC(=O)[C@H](CCCNC(=N)N)NC(=O)CNC(=O)[C@H](CS)NC(=O)[C@H](CC(C)C)NC(=O)[C@H](CCC(N)=O)NC(=O)[C@H](CCCNC(=N)N)NC(=O)[C@H](Cc1ccccc1)NC(=O)[C@H](CO)NC(=O)[C@@H]1CCCN1C(=O)[C@H](CS)NC(=O)[C@@H]1CCCN1C(=O)[C@H](CCCNC(=N)N)NC(=O)[C@H](Cc1c[nH]c2ccccc12)NC(=O)[C@H](CS)NC(=O)[C@H](CCCNC(=N)N)NC(=O)[C@H](CCCNC(=N)N)NC(=O)[C@H](CCCNC(=N)N)NC(=O)[C@H](CCC(N)=O)NC(=O)[C@H](CCCNC(=N)N)NC(=O)[C@H](CCCNC(=N)N)NC(=O)[C@H](CCCCN)NC(=O)[C@H](CCCCN)NC(=O)[C@H](CCCNC(=N)N)NC(=O)CNC(=O)[C@@H](N)Cc1ccc(O)cc1)[C@@H](C)CC)C(=O)N[C@@H](CCCNC(=N)N)C(=O)O` [TAT-P3] (H-YGRKKRRQRRRCWRPCPSFRQLCGRFRIRCRIR-OH; N-terminus and C-terminus assumed), in the series on A(H7N7) virus [5], the “IC50 (H7N7)” value came out at 0.78 µg/mL (≈ 0.179 µM). In addition, the “IC50 (H1N1)” value with A(H1N1)pdm09 virus [9] came out at 0.68 µg/mL (≈ 0.156 µM).

Consider `CCN(CC)CCCC(C)Nc1ccnc2cc(Cl)ccc12` (centres unmarked) [chloroquine], for which the “effective concentrations for inhibiting endosomal acidification” value with endosomal acidification was ~ 100 μM.

For the molecule `CC(=O)N[C@H]1[C@H]([C@H](O)[C@H](O)CO)OC(C(=O)O)=C[C@@H]1N=C(N)N` [zanamivir], the “viral titers / viral replication in mouse lungs” value in the series on A(H1N1)pdm09 virus [10] was “significantly reduced”. Moreover, in the series with A(H1N1)pdm09 virus [10] (mouse), the “IL-6 expression in mice” value is “significantly reduced”, the body weight loss result is “significantly reduced” and the survival was 90%. Moreover, in the series on A(H7N7) virus [8], the body weight loss entry is recorded as “significantly less body weight loss” and the survival was 40%. Besides, in the series on A(H1N1)pdm09 virus [11], the survival worked out at 90%. In the series with A(H7N7) virus [12], the “susceptibility of virus to zanamivir” value is on record as “reduced susceptibility”.

The record behind these values is paper PMC6004018, “Dual-functional peptide with defective interfering genes effectively protects mice against avian and seasonal influenza” (Nature Communications, 2018).
